# Measured values published in ChEMBL document CHEMBL1152181, “Rational design of novel glycomimetics: inhibitors of concanavalin A” (Bioorg Med Chem Lett, 2008).
# Molecular target: Concanavalin-A (Canavalia ensiformis, UniProt P02866)
# Assay: Inhibition of Canavalia ensiformis concanavalin A binding to yeast mannan by ELLA
# Sequence of Concanavalin-A (P02866 whole entry): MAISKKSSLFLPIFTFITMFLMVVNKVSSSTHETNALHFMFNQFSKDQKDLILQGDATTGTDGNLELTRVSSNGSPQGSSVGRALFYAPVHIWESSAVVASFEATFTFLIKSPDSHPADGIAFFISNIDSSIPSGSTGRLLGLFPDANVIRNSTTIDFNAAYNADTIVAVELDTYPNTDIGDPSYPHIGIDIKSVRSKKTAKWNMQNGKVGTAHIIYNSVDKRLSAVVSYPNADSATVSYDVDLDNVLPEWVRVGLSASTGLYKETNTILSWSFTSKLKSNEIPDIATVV
row,SMILES,IC50
1,O=C(O)C1CCCCC1c1c2ccc(=O)c(O)c-2oc2c(O)c(O)ccc12 (configuration not stated),29 µM
2,Oc1cc(O)c2c(c1)OC(c1ccc(O)c(O)c1)C(O)C2c1c(O)cc(O)c2c1CC(c1ccc(O)c(O)c1)C(O)C2 (configuration not stated),479 µM
3,CO[C@H]1O[C@H](CO)[C@@H](O)[C@H](O)[C@@H]1O,350 µM
4,NNS(=O)(=O)c1cc(C(=O)O)cc(C(=O)O)c1,19 µM
5,NS(=O)(=O)c1ccc(/N=N/c2cccnc2O)cc1,234 µM
6,NS(=O)(=O)c1ccc(/N=N/c2nc3nc(O)nc(O)c3[nH]2)cc1,615 µM

# Molecular target: Concanavalin-A (Canavalia ensiformis) (UniProt P02866)
# Sequence (P02866 whole entry): as above
# Assay: Inhibition of Canavalia ensiformis concanavalin A binding to yeast mannan at 11 mM by ELLA
row,inhibition,SMILES
1,49%,NS(=O)(=O)c1ccc(/N=N/c2cnc(O)c(O)c2)cc1
